Values of other authors, collected in US9040021B2, “Heterocyclic compounds as imaging probes of tau pathology” (GE Healthcare Limited, priority 2010, dated 2015).

Target: tau aggregates (Homo sapiens, UniProt P10636)
Details: in vitro; tau aggregates vs Aβ1-42 amyloid; fold selectivity

Chain of tau aggregates (P10636 whole entry): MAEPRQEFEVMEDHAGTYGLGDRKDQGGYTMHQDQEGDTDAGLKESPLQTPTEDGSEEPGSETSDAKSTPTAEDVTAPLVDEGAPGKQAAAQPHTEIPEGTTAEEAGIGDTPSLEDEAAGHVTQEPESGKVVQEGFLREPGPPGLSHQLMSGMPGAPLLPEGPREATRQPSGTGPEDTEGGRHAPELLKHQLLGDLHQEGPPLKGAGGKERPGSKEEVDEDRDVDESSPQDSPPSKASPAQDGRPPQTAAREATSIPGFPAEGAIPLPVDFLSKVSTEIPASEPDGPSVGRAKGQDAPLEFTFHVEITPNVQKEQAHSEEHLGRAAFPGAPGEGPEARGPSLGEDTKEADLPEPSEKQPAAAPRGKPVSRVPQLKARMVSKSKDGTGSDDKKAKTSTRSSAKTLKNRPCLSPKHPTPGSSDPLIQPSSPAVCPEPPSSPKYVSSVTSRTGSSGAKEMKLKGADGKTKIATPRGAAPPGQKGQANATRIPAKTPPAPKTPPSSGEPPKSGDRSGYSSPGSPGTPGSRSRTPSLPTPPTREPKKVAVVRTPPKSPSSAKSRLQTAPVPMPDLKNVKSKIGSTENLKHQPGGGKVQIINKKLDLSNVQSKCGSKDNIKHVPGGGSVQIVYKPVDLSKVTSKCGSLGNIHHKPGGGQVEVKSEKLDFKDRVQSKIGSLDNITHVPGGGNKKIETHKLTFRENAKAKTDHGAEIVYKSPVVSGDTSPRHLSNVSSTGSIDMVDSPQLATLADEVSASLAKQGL

selectivity for tau aggregates over Aβ1-42 amyloid	Structure (SMILES)
threefold	Nc1ccc(-c2ccc3ccccc3n2)cc1 [BF-170, 2-(4-(amino)phenyl)quinoline]
threefold	CNc1ccc(-c2ccc3ccccc3n2)cc1 [BF-158, 2-(4-(methylamino)phenyl)quinoline]
